Data on one molecule can be found in PubChem BioAssay AID1259407 (Chemical Carcinogenesis Research Information System (CCRIS), 2018).

Each structure is given as a SMILES string. Active and inactive are the calls of the source. No rule for the calls is given here.

This data set deals with CCRIS mutagenicity, Ames/micronucleus/aberration tests. Nature of the data set: CCRIS mutagenicity studies.

In the case of `Nc1ncn([C@@H]2O[C@H](CO)[C@@H](O)[C@@H]2O)c(=O)n1`, the mutagenic call is “inactive; negative” (Test System: AMES SALMONELLA TYPHIMURIUM, Strain/Indicator: TA98, Metabolic Activation: HAMSTER, LIVER, S-9, AROCLOR 1254, Method: STANDARD PLATE); “inactive; negative” (Test System: AMES SALMONELLA TYPHIMURIUM, Strain/Indicator: TA98, Metabolic Activation: NONE, Method: STANDARD PLATE); “inactive; negative” (Test System: AMES SALMONELLA TYPHIMURIUM, Strain/Indicator: TA98, Metabolic Activation: RAT, LIVER, S-9, AROCLOR 1254, Method: STANDARD PLATE); “inactive; negative” (Test System: AMES SALMONELLA TYPHIMURIUM, Strain/Indicator: TA100, Metabolic Activation: HAMSTER, LIVER, S-9, AROCLOR 1254, Method: STANDARD PLATE); “inactive; negative” (Test System: AMES SALMONELLA TYPHIMURIUM, Strain/Indicator: TA100, Metabolic Activation: NONE, Method: STANDARD PLATE); “inactive; negative” (Test System: AMES SALMONELLA TYPHIMURIUM, Strain/Indicator: TA100, Metabolic Activation: RAT, LIVER, S-9, AROCLOR 1254, Method: STANDARD PLATE). In addition, the mutagenic call is “inactive; negative” (Test System: AMES SALMONELLA TYPHIMURIUM, Strain/Indicator: TA1535, Metabolic Activation: HAMSTER, LIVER, S-9, AROCLOR 1254, Method: STANDARD PLATE); “inactive; negative” (Test System: AMES SALMONELLA TYPHIMURIUM, Strain/Indicator: TA1535, Metabolic Activation: NONE, Method: STANDARD PLATE); “inactive; negative” (Test System: AMES SALMONELLA TYPHIMURIUM, Strain/Indicator: TA1535, Metabolic Activation: RAT, LIVER, S-9, AROCLOR 1254, Method: STANDARD PLATE); “inactive; negative” (Test System: AMES SALMONELLA TYPHIMURIUM, Strain/Indicator: TA1537, Metabolic Activation: HAMSTER, LIVER, S-9, AROCLOR 1254, Method: STANDARD PLATE); “inactive; negative” (Test System: AMES SALMONELLA TYPHIMURIUM, Strain/Indicator: TA1537, Metabolic Activation: NONE, Method: STANDARD PLATE); “inactive; negative” (Test System: AMES SALMONELLA TYPHIMURIUM, Strain/Indicator: TA1537, Metabolic Activation: RAT, LIVER, S-9, AROCLOR 1254, Method: STANDARD PLATE). The mutagenic call is “inactive; negative” (Test System: AMES SALMONELLA TYPHIMURIUM, Strain/Indicator: TA1538, Metabolic Activation: HAMSTER, LIVER, S-9, AROCLOR 1254, Method: STANDARD PLATE); “inactive; negative” (Test System: AMES SALMONELLA TYPHIMURIUM, Strain/Indicator: TA1538, Metabolic Activation: NONE, Method: STANDARD PLATE); “inactive; negative” (Test System: AMES SALMONELLA TYPHIMURIUM, Strain/Indicator: TA1538, Metabolic Activation: RAT, LIVER, S-9, AROCLOR 1254, Method: STANDARD PLATE); “active; positive. reevaluation of results: inconclusive” (Test System: MOUSE LYMPHOMA, Strain/Indicator: L5178Y (TK+/TK-), Metabolic Activation: NONE, Method: SUSPENSION/PLATE); “inactive; negative. reevaluation of results: inconclusive” (Test System: MOUSE LYMPHOMA, Strain/Indicator: L5178Y (TK+/TK-), Metabolic Activation: RAT, LIVER, S-9, AROCLOR 1254, Method: SUSPENSION/PLATE).
